The values that follow come from patent US12692221B2 (priority 2024, dated 2026).

For one series, the target named is T1, alpha2A (h) (Homo sapiens, UniProt P08913).
T1 construct: expressed in transfected cells; host or cells: CHO cells
T1 sequence (P08913 1-465): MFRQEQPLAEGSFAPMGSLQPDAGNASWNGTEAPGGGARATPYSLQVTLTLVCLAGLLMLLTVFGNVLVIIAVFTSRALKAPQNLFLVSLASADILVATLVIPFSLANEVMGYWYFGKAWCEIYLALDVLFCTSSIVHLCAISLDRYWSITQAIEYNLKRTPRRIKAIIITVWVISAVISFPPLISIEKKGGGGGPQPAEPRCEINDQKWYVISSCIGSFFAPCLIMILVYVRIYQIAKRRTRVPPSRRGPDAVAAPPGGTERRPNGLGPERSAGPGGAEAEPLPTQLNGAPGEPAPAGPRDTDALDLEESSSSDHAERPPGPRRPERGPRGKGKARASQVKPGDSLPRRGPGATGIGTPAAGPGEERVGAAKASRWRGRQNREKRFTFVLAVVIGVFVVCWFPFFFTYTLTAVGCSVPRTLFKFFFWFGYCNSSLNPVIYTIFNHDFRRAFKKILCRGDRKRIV
The series can be described thus: Radioligand binding alpha2A (h) (antagonist radioligand), [^3H]RX 821002, CHO cells. As to the method: (§1) Methods—Binding Assays: In vitro binding assays were performed using human recombinant receptors expressed in mammalian cell lines. Receptors were expressed in either HEK-293 or CHO cells depending on the target, and assay conditions (radioligand, concentration, nonspecific competitor, temperature, and incubation time) were optimized for each receptor. All assays were conducted in triplicate, and specific binding was quantified by scintillation counting as the detection method for each listed assay.
(§2) Specific binding was expressed as a percentage of control-specific binding, and percent inhibition was calculated using the formula in Ex. 8 above. Half-maximal inhibitory concentrations (IC50) were determined by non-linear regression analysis of the inhibition curves using the Hill equation (see Ex. 8). Inhibition constants (Ki) were calculated using the Cheng-Prusoff equation (see Ex. 8). KD values used in these calculations had been previously established for each receptor under the assay conditions (see Table 6). Data analysis was performed using software developed at Cerep and validated against SigmaPlot 4.0 for Windows.

Another series deals with T2, ETA (h) (Homo sapiens, UniProt P25101).
T2 construct: expressed in transfected cells; host or cells: CHO cells
T2 sequence (P25101 21-427): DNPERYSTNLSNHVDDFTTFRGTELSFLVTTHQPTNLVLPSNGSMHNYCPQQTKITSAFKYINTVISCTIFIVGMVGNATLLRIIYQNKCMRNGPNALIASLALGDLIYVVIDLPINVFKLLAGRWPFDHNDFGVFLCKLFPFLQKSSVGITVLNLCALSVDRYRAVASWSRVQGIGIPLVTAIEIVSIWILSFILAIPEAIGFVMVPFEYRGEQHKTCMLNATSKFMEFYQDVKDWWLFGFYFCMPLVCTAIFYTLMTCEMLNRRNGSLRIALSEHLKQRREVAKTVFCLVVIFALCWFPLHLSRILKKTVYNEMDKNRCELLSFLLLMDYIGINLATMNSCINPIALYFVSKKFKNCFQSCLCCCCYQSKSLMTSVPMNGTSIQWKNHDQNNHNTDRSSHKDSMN
The series can be described thus: Radioligand binding ETA (h) (agonist radioligand), [^125I]endothelin-1, CHO cells. The method, then:
as §1, §2

Another series addresses T3, N neuronal α4β2 (h) (Homo sapiens, UniProt P17787+P43681).
T3 construct: expressed in transfected cells; host or cells: SH-SY5Y cells
The series is described as follows: Radioligand binding N neuronal α4β2 (h) (agonist radioligand), [^3H]cytisine, SH-SY5Y cells. Conditions: N neuronal alpha4beta2 (h) (agonist radioligand).

A further series addresses T4, 5-HT1A (h) (Homo sapiens, UniProt P08908).
T4 construct: expressed in transfected cells; host or cells: HEK-293 cells
T4 sequence (P08908 1-422): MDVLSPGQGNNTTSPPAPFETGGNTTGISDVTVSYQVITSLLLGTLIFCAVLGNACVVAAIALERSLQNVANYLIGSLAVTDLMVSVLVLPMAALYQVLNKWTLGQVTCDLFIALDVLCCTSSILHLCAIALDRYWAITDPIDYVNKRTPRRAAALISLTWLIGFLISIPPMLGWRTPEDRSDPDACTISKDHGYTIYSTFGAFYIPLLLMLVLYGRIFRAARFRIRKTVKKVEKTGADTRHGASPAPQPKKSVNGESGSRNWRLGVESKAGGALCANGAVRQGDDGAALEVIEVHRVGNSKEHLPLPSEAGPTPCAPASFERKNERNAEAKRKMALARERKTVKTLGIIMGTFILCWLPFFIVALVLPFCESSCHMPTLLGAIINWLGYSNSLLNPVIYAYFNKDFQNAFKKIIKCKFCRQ
The series is described as follows: Radioligand binding 5-HT1A (h) (agonist radioligand), [^3H]8-OH-DPAT, HEK-293 cells. The method, then:
as §1, §2

The target of series [1] is T5, Potassium Channel hERG (human) (Homo sapiens, UniProt Q12809).
T5 construct: expressed in transfected cells; host or cells: HEK-293 cells
T5 sequence (Q12809 whole entry): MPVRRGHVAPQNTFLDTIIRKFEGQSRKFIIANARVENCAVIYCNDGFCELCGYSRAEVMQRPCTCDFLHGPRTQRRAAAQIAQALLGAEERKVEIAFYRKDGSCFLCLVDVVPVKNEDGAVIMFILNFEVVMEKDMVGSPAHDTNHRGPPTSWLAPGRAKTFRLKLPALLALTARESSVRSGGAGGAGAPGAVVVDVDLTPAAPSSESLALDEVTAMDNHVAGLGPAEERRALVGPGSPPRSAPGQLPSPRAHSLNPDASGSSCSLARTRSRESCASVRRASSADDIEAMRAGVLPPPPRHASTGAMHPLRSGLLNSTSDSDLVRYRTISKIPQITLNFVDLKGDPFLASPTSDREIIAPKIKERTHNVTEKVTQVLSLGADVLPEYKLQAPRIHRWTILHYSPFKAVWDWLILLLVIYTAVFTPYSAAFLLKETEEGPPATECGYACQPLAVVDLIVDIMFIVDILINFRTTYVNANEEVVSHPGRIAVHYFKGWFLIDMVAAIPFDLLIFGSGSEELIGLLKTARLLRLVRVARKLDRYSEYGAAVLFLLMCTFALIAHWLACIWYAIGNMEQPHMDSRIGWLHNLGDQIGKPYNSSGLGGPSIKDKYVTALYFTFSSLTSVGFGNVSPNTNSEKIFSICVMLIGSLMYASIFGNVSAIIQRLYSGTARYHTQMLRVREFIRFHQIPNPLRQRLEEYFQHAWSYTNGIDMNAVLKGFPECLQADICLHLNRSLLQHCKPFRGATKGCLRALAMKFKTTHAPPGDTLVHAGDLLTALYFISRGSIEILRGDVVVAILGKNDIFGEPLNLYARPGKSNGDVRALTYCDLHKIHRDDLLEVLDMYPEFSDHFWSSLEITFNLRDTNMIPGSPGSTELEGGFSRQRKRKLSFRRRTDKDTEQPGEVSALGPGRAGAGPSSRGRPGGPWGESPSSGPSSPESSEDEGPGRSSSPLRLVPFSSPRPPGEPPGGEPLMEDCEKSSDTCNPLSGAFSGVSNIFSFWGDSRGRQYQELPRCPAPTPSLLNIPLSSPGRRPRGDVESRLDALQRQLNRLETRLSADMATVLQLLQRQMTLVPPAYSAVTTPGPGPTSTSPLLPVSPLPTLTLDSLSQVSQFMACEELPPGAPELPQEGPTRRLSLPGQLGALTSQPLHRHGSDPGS
The series is described as follows: Radioligand binding Potassium Channel hERG (human), [^3H]Dofetilide, HEK-293 cells. Particulars: Potassium Channel hERG(h) ([3H] Dofetilide). The method, then: as §1, §2

The target of a further series is T6, Acetylcholinesterase (h) (Homo sapiens, UniProt P22303).
T6 construct: purchased Eurofins Discovery (contract assay)
T6 sequence (P22303 32-614): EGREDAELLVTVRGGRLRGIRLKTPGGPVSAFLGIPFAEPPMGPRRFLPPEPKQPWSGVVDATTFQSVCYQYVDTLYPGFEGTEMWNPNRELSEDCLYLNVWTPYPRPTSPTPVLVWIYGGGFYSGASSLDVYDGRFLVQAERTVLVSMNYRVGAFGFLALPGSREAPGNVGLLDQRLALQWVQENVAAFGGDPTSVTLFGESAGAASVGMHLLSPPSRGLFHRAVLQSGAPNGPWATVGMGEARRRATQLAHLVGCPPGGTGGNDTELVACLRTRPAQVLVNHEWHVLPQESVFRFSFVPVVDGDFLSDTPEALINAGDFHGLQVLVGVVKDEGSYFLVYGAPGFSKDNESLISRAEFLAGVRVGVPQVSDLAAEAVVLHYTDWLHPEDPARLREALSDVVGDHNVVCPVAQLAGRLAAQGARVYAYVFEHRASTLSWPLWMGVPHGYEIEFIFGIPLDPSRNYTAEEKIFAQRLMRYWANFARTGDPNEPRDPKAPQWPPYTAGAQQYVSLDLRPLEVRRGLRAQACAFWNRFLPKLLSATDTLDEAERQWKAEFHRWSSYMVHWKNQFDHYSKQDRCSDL
The series can be described thus: Enzyme assay Acetylcholinesterase (h), photometry. Format: biochemical. As to the method:
Methods—Enzyme and Uptake Assays: In vitro enzyme and uptake assays were conducted by Eurofins Discovery using human recombinant enzymes expressed in various mammalian and insect cell lines. Enzymatic activity was measured using appropriate substrates or tracers under conditions optimized for each target, as detailed in Table 7. Reactions were incubated at room temperature for a defined duration and terminated according to established protocols. The measured components (either enzymatic products or remaining substrate) were quantified using fluorimetry, photometry, scintillation counting, or LANCE technology, depending on the assay. Assay-specific parameters, including substrate identity, cell line source, incubation time, and detection method, are provided in Table 7.
All measurements were performed in technical replicates to ensure reproducibility and data quality.
Results were expressed both as a percentage of control-specific activity and as percent inhibition of control-specific activity. Percent activity was calculated as (measured specific activity/control specific activity)×100, and percent inhibition as 100−[(measured specific activity/control specific activity)×100], based on values obtained in the presence of test compounds. IC50 and EC50 values, along with Hill coefficients (nH), were determined by nonlinear regression analysis of inhibition or concentration-response curves generated from mean replicate values. Hill curve fitting was performed as previously described using software developed at Cerep and validated against SigmaPlot® 4.0 for Windows® (© 1997 by SPSS Inc.).

T3 sequence (P43681 29-627 limits assumed): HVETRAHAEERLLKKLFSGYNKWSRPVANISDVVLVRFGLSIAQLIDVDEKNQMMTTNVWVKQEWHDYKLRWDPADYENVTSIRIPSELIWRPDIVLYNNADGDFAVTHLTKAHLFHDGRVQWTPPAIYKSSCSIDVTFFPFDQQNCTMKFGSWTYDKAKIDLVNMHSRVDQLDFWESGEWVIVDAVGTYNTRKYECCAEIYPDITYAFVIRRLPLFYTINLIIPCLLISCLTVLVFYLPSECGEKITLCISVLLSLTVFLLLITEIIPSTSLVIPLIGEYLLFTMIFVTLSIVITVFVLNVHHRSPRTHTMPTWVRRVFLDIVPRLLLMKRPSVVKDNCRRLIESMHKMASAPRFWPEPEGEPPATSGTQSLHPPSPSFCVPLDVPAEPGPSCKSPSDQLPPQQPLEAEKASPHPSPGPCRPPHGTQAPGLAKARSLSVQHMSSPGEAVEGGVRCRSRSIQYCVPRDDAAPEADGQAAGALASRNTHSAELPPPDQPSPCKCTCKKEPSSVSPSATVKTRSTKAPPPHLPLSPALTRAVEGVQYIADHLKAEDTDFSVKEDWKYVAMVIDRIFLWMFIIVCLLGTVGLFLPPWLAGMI
T3 sequence (P17787 26-502): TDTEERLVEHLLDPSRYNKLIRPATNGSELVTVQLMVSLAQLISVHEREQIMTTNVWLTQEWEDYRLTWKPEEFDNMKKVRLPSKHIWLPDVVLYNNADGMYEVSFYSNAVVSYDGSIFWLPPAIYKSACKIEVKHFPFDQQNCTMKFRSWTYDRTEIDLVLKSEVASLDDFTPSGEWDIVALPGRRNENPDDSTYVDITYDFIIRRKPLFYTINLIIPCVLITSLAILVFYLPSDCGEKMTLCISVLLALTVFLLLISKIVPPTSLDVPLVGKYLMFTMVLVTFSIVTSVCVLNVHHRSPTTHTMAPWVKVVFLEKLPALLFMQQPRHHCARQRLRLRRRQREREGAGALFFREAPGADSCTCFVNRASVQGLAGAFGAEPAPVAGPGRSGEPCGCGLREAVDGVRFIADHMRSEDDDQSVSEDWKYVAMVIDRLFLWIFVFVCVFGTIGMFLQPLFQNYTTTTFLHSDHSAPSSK

Regarding `COCc1cc(CCN)c(O)cc1CC(C)C` [2CiBu-2OH-5MM, 2-(2-aminoethyl)-5-isobutyl-4-(methoxymethyl)phenol], the “Mean Percent Inhibition of Control Specific Binding” value (from here on “Mean Percent Inhibition”) is 79.4% at alpha2A (h); −9.0% at ETA (h); −10.0% on N neuronal α4β2 (h); 34.8% on 5-HT1A (h); 9.7% in series [1]; 4.4% at Acetylcholinesterase (h).

On to `COCCc1cc(CCN)c(OC)cc1Br` [Compound 2CB-5ME, reference compound], for which the “Mean Percent Inhibition” value at alpha2A (h) is 73.0%; at ETA (h) it was −3.5%; at N neuronal α4β2 (h) it was 7.4%; on 5-HT1A (h), 98.2%; in series [1], 8.5%; at Acetylcholinesterase (h), −3.2%.

With `COCc1cc(CCN)c(OC)cc1Br` [Compound 2CB-5MM, 2-(4-bromo-2-methoxy-5-(methoxymethyl)phenyl)ethan-1-amine], the “Mean Percent Inhibition” value at alpha2A (h) is on record as 80.2%; on ETA (h), −6.5%; at N neuronal α4β2 (h), −0.1%; on 5-HT1A (h), 95.1%; in series [1] it was 13.9%; on Acetylcholinesterase (h), −3.5%.

As for `COCc1cc(CCN)c(OC)cc1CC(C)C` [Compound 2CiBu-5MM, 2-[4-isobutyl-2-methoxy-5-(methoxymethyl)phenyl]ethanamine], the “Mean Percent Inhibition” value is listed as 88.5% on alpha2A (h); −1.5% at ETA (h); −2.6% on N neuronal α4β2 (h); 76.5% at 5-HT1A (h); 4.4% in series [1]; 8.0% on Acetylcholinesterase (h).
